Results reported in PubChem BioAssay (NCI).
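Compound exposure: 48 hours, 5 concentrations, 96-well plates. GI50 = concentration required for 50% inhibition of growth. TGI is the concentration that stops growth completely.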

Tests used:
Experiment in all cases: inhibition of tumour cell growth, NCI panel, 48 h
[1] = tested on: MOLT-4 leukemia
[2] = tested on: COLO 205 colon
[3] = tested on: HCT-116 colon
[4] = tested on: SF-268 CNS
[5] = tested on: SW-620 colon
[6] = tested on: UACC-62 melanoma
[7] = tested on: OVCAR-4 ovarian
[8] = tested on: TK-10 renal
[9] = tested on: SR leukemia
[10] = tested on: SNB-19 CNS
[11] = tested on: HS 578T breast
[12] = tested on: PC-3 prostate
[13] = tested on: T-47D breast
[14] = tested on: CCRF-CEM leukemia
[15] = tested on: MDA-MB-231 breast
[16] = tested on: HL-60(TB) leukemia
[17] = tested on: LOX IMVI melanoma
[18] = tested on: RPMI-8226 leukemia
[19] = tested on: SK-OV-3 ovarian
[20] = tested on: SF-539 CNS
[21] = tested on: SK-MEL-2 melanoma
[22] = tested on: HOP-92 NSCLC
[23] = tested on: 786-0 renal
[24] = tested on: IGROV1 ovarian
[25] = tested on: OVCAR-8 ovarian
[26] = tested on: EKVX NSCLC
[27] = tested on: CAKI-1 renal
[28] = tested on: NCI-H23 lung
[29] = tested on: RXF 393 renal
[30] = tested on: NCI-H522 lung
[31] = tested on: MDA-MB-435
[32] = tested on: SK-MEL-28 melanoma
[33] = tested on: HT29 colon
[34] = tested on: NCI-H226 lung
[35] = tested on: KM12 colon
[36] = tested on: NCI/ADR-RES ovarian
[37] = tested on: U251 CNS
[38] = tested on: BT-549 breast
[39] = tested on: MALME-3M melanoma
[40] = tested on: MCF7 breast
[41] = tested on: HCT-15 colon
[42] = tested on: OVCAR-5 ovarian
[43] = tested on: M14 melanoma
[44] = tested on: HOP-62 NSCLC
[45] = tested on: A549 NSCLC
[46] = tested on: DU-145 prostate
[47] = tested on: UACC-257 melanoma
[48] = tested on: HCC-2998 colon
[49] = tested on: OVCAR-3 ovarian
[50] = tested on: SN12C renal
[51] = tested on: ACHN renal
[52] = tested on: K-562 leukemia
[53] = tested on: UO-31 renal
[54] = tested on: SNB-75 CNS
[55] = tested on: NCI-H460 lung

Question: What does the source list for `CC1=C2C(=C[C@@](C)(C=O)[C@@H]2O)C(=O)[C@](C)(O)C12CC2`?
Answer: GI50 [1]: 2.18 µM; TGI [1]: > 100 µM; GI50 [2]: 1.12 µM; TGI [2]: 4.68 µM; GI50 [3]: 0.569 µM; TGI [3]: > 100 µM; GI50 [4]: 2.59 µM; TGI [4]: 10.3 µM; GI50 [5]: 0.881 µM; TGI [5]: > 100 µM; GI50 [6]: 1.52 µM; TGI [6]: 3.67 µM; GI50 [7]: 2.04 µM; TGI [7]: 7.07 µM; GI50 [8]: 2.7 µM; TGI [8]: 8.77 µM; GI50 [9]: 2.16 µM; TGI [9]: > 100 µM; GI50 [10]: 2.5 µM; TGI [10]: 12.5 µM; GI50 [11]: 1.99 µM; TGI [11]: 5.36 µM; GI50 [12]: 1.55 µM; TGI [12]: 8.26 µM; GI50 [13]: 2.39 µM; TGI [13]: 8.86 µM; GI50 [14]: 1.74 µM; TGI [14]: > 100 µM; GI50 [15]: 2.49 µM; TGI [15]: 7.55 µM; GI50 [16]: 1.47 µM; TGI [16]: 6.97 µM; GI50 [17]: 1.16 µM; TGI [17]: 4.43 µM; GI50 [18]: 7.28 µM; TGI [18]: 52.2 µM; GI50 [19]: 2.66 µM; TGI [19]: 7.79 µM; GI50 [20]: 1.48 µM; TGI [20]: 3.33 µM; GI50 [21]: 2.08 µM; TGI [21]: 4.58 µM; GI50 [22]: 2.39 µM; TGI [22]: 6.68 µM; GI50 [23]: 2.4 µM; TGI [23]: 10.1 µM; GI50 [24]: 0.789 µM; TGI [24]: 5.76 µM; GI50 [25]: 2.39 µM; TGI [25]: > 100 µM; GI50 [26]: 2.8 µM; TGI [26]: 8.86 µM; GI50 [27]: 0.541 µM; TGI [27]: 22 µM; GI50 [28]: 0.666 µM; TGI [28]: 2.45 µM; GI50 [29]: 0.277 µM; TGI [29]: 0.799 µM; GI50 [30]: 1.79 µM; TGI [30]: 4.94 µM; GI50 [31]: 2.07 µM; TGI [31]: 4.72 µM; GI50 [32]: 1.96 µM; TGI [32]: 5.03 µM; GI50 [33]: 1.13 µM; TGI [33]: 88 µM; GI50 [34]: 2.07 µM; TGI [34]: 5.09 µM; GI50 [35]: 3.09 µM; TGI [35]: 22.2 µM; GI50 [36]: 1.56 µM; TGI [36]: 5.7 µM; GI50 [37]: 1.05 µM; TGI [37]: > 100 µM; GI50 [38]: 1.59 µM; TGI [38]: 4.73 µM; GI50 [39]: 1.61 µM; TGI [39]: 3.83 µM; GI50 [40]: 0.381 µM; TGI [40]: 10.5 µM; GI50 [41]: 0.842 µM; TGI [41]: 9.1 µM; GI50 [42]: 0.424 µM; TGI [42]: 4.44 µM; GI50 [43]: 1.78 µM; TGI [43]: 5.11 µM; GI50 [44]: 2.53 µM; TGI [44]: 14.1 µM; GI50 [45]: 0.476 µM; TGI [45]: 11.9 µM; GI50 [46]: 0.34 µM; TGI [46]: 10.1 µM; GI50 [47]: 3.15 µM; TGI [47]: 15.2 µM; GI50 [48]: 1.38 µM; TGI [48]: 3.48 µM; GI50 [49]: 1.35 µM; TGI [49]: 5.77 µM; GI50 [50]: 2.85 µM; TGI [50]: 51.5 µM; GI50 [51]: 1.56 µM; TGI [51]: 8.2 µM; GI50 [52]: 2.91 µM; TGI [52]: > 100 µM; GI50 [53]: 1.7 µM; TGI [53]: 9.01 µM; GI50 [54]: 1.58 µM; TGI [54]: 3.95 µM; GI50 [55]: 0.26 µM; TGI [55]: 0.71 µM
